# Patent US12326385B2, “Cell-permeable fluorogenic fluorophores” (MAX-PLANCK-GESELLSCHAFT ZUR FÖRDERUNG DER WISSENSCHAFTEN E. …, priority 2018, dated 2025)
# Marks after values point to notes of the source that are not given here.
# Columns and labels:
# [1] = UV-Vis and fluorescence spectroscopy of free dye or probe in buffer or SDS; format: physicochemical
# Procedure: UV-Vis and Fluorescence Spectroscopy
# Spectroscopy was performed using 96-well plate (Thermo Fisher) with optical bottom. All measurements were taken at ambient temperature (25±2° C.). Absorption and fluorescence spectra were recorded on Spark® microplate reader (Tecan). Maximum absorption wavelength (λabs), and maximum emission wavelength (λem) were taken in 10 mM HEPES, pH 7.3 buffer unless otherwise noted; reported values for ε are averages (n=3). Normalized spectra are shown for clarity.
# (§1) SDS (10% in 10 mM HEPES) was added with dilution of 100 folds as a control group. Absorbance and fluorescence measurements were performed in 96-well plate (Thermos Fisher) with optical bottom.
# [2] = UV absorbance spectra in water-dioxane mixtures (D50); format: physicochemical; details: dioxane-H2O mixture (v/v: 90/10-10/90), dielectric constant at half-maximal zwitterion absorbance
# Source text: The inventors' efforts to improve the permeability and fluorogenicity of rhodamine derivatives for live-cell imaging focused on increasing the propensity of rhodamines to form the spirocyclic, non-fluorescent form without affecting the spectroscopic properties of the parental molecule. The inventors initially considered replacing the carboxylic acid responsible for formation of the spirolactone with an amide. However, such rhodamine derivatives have been reported to strongly favor spirolactams at physiological pH, making them unsuitable for live-cell imaging. The inventors therefore attempted to destabilize the spirolactam by attaching different electron-withdrawing groups to the underlying amides. Specifically, the inventors converted 6-carboxytetramethylrhodamine (6-TAMRA), a widely used fluorophore with good photophysical properties, into the corresponding acyl cyanamide (132), acyl sulfonamide (133) and acyl sulfamide (134 and 135), (FIG. 32c). The acyl cyanamide of rhodamine B was previously reported to exist as a fluorescent zwitterion at physiological pH. Acyl sulfonamides and acyl sulfamides are used in medicinal chemistry as anionic pharmacophores. Amides 132-135 were prepared in three simple steps from commercially available 6-TAMRA (FIG. 32c). To investigate the propensity of these amides to form the corresponding spirolactams, the inventors measured their absorbance spectra in water-dioxane mixtures with […]. The equilibrium between the zwitterionic and spirocyclic form can then be characterized by the D50 value, which is defined as the dielectric constant at which absorbance of the fluorescent zwitterion is decreased by half compared to the highest recorded absorbance value measured in dioxane-water mixtures. […] In comparison, the D50 value of TAMRA is around 10 showing that in aqueous solution TAMRA exists predominantly in its open form and TAMRA-based probes are usually not fluorogenic. The measured D50 values of amides 132-135 ranged from 32 to around 60 (FIG. 32d), which indicates the potential of these fluorophores for the generation of permeable and fluorogenic probes. […] The possibility to tune the equilibrium between the open and closed form of the fluorophore by varying the substituents on the amide is an important feature of this approach.
# Measurements of UV Absorbance Spectra in Water-Dioxane Mixtures
# Solutions of 5 μM Rhodamine B, RhB-CH3 (201, Z=CH3), RhB-Ben (201, Z=CH2Ph), RhB-CN (201, Z=CN), RhB-SCH3 (115), RhB-SNH2 (116), RhB-SNMe2 (117), RhB-CONH2 (118), WS1-SCF3, (119) WS1-SCH3 (120), WS1-CN (121), WS1-SNH2 (122), WS1-SO (123), WS1-UREA (124) in water-dioxane mixtures containing 10%, 20%, 30%, 40%, 50%, 60%, 70%, 80% and 90% of dioxane (by volume) were prepared. The absorbance spectra were recorded using a Spark® microplate reader (Tecan). The spectra were integrated from 400 to 700 nm for Rhodamine B-based fluorophores and from 350 to 750 nm for WS1-based fluorophores using the software Prism 7. Normalized integrals were plotted against dielectric constant of water-dioxane mixture.
# SNAP-Halo-tag = test: Increase in absorbance and fluorescence on binding to SNAP-HaloTag protein in vitro; format: biochemical; details: for Φ / ε^protein / λabs / λem: binding with SNAP-Halo-tag; for F/F0: ± s.e.m.
# Procedure: Measurement of Increase in Absorbance and Fluorescence.
# SNAP-HaloTag protein were used as a 85 μM-200 μM solution in 75 mM NaCl, 50 mM TRIS-HCl, pH 7.4 with 50% v/v glycerol (TBS-glycerol). SNAPTag and HaloTag based fluorogenic probes were diluted to 1.0-2.0 μM in 10 mM HEPES, pH 7.3. Then an aliquot of SNAPTag/HaloTag protein (1.5-2.0 equiv) was added and the resulting mixture was incubated until consistent absorbance signal was observed (˜60 min).
# as §1
# [3] = tested on: U2OS FlpIn Halo-SNAP-NLS expressing cells; test: No-wash live-cell confocal imaging, nuclear versus cytosol signal; format: cell-based; details: for Fnuc./Fcyt.: average ratio between nuclear signal (U2OS FlpIn Halo-SNAP-NLS expressing cells) and cytosol signal (normal U2OS cell), ± s.e.m.; for nuclei to cytosol signal ratio (Fnuc/Fcyt): no-wash live-cell imaging, U2OS cells, 250 nM for MaP555-SNAP and MaP700-Halo
# Source text: Self-labeling protein tags such as SNAP-tag and HaloTag are an efficient approach to attach synthetic fluorophores to proteins in living cells. The main challenge when using these tags for live-cell imaging is the low cell permeability of most fluorescent probes used for labeling and high background signal resulting from their unspecific binding. SNAP-tag fusion proteins can be specifically labeled with different fluorophores using appropriate O^6-benzlyguanine derivatives. A 6-TAMRA based probe (150) for SNAP-tag has been previously introduced for live-cell imaging, but its low cell-permeability and lack of fluorogenicity requires the use of high concentrations (5 μM) and repeated washing steps to remove excess and non-specifically bound probe. To address these problem, the inventors coupled fluorophores 132-135 to O^6-benzylguanine to obtain probes 152, 154, 156, and 158. […] The inventors then examined the performance of probes 150, 152, 154, 156, and 158 in live-cell imaging, in which U2OS cells stably expressing a nuclear localized SNAP-Halo fusion protein were co-cultured with regular U2OS cells not expressing any protein tags. […] Furthermore, the kinetics of labeling of nuclear localized SNAP-tag with MaP555-SNAP were much faster than those of control […]. The inventors then prepared the corresponding 6-TAMRA-based probes 151, 153, 155, 157, and 159 for HaloTag. As for SNAP-tag, the probe with the largest enhancement in absorbance (16-fold) and fluorescence intensity (35-fold) in in vitro assays was based on the N,N-dimethylsulfamide derivative 159 (abbreviated as MaP555-Halo in the following). […] The excellent performance of MaP555-SNAP and MaP555-Halo in live-cell imaging experiments support the inventors' assumption that establishing a dynamic equilibrium between the fluorescent zwitterion and the more hydrophobic spirolactam enables the generation of highly cell-permeable and fluorogenic probes for live-cell imaging.
# Generation of U2OS FlpIn Halo-SNAP-NLS Cell Lines
# The Flp-In™ System (ThermoFisher Scientific) was used to generated U2OS FlpIn Halo-SNAP-NLS expressing cells. pcDNA5-FRT-Halo-SNAP-NLS and pOG44 were co-transfected into the host cell line U2OS FLpIn (Malecki et al. Molecular and Cellular Biology 26, 4642 (2006)). Homologous recombination between the FRT sites in pcDNA5-FRT-Halo-SNAP-NLS and on the host cell chromosome, catalysed by the Flp recombinase expressed from pOG44, produced the U2OS FlpIn Halo-SNAP-NLS stably expressing cells.
# Live-Cell Confocal Imaging
# U2OS FlpIn Halo-SNAP-NLS expressing cells were grown in 96-well plate (Thermos Fisher) with optical bottom at 37° C. in a humidified 5% (vol/vol) CO2 environment. 50-500 nM probes and 2 μM verapamil were added and incubated for 1 h in DMEM media (Evrogen) containing 10% FBS. The cells were directly used to image without washing. Meanwhile, another group was imaged after being washed 2 times for 5 min with 1× phosphate buffered saline (PBS, pH 7.4) and DMEM supplemented with 10% FBS. Imaging was performed using Leica TCS SP8 confocal microscope. TMR- and Rhodamine B—, and Rhodamine 110-based probes were excited at 540 nm and the fluorescence signal was collected from 560-700 nm. Semi-Rhodamine-based probes were excited at 650 nm and the fluorescence signal was […] from 670-760 nm. Images were processed with Fiji (http://fiji.sc/wiki/index.php/Fiji) to obtain MIP (maximum intensity projections)
# [4] = 0.1% SDS in HEPES buffer (pH 7.3)
# [5] = upon binding to HaloTag, in vitro
# [6] = ratio of fluorescence intensities at 580 nm in the presence and absence of SNAP-Halo-tag
# [7] = upon binding to SNAP-tag, in vitro
"Φ [1, 4]",Φ ([1]; HEPES buffer (pH 7.3)),ε ([1]; HEPES buffer (pH 7.3)),λabs ([1]; HEPES buffer (pH 7.3)),λem ([1]; HEPES buffer (pH 7.3)),D50 [2],SMILES,Φ (SNAP-Halo-tag),further results
0.69,0.68,"74,000^a M^−1cm^−1",502 nm,526 nm,70^d,CN(C)S(=O)(=O)N1C(=O)c2ccc(C(=O)O)cc2C12c1ccc(N)cc1Oc1cc(N)ccc12 [compound 21],–,D50 ([2]; listed as MaP510): 70
0.66,–,"40,000 M^−1cm^−1",–,–,–,CN(C)c1ccc2c(c1)Oc1cc(N(C)C)ccc1C21c2cc(C(=O)NCCOCCOCCCCCCCl)ccc2C(=O)N1S(C)(=O)=O [compound 155],0.56,"Fnuc./Fcyt. [3]: 12 ± 2.6^f; ε^SDS [1, 4]: 95,000 M^−1cm^−1; ε^protein (SNAP-Halo-tag): 85,000 M^−1cm^−1; λabs (SNAP-Halo-tag): 559 nm; λem (SNAP-Halo-tag): 580 nm; F/F0 (SNAP-Halo-tag; [6]): 3.7 ± 0.4^e"
0.61,–,"3,500 M^−1cm^−1",–,–,–,CN(C)c1ccc2c(c1)Oc1cc(N(C)C)ccc1C21c2cc(C(=O)NCc3ccc(COc4nc(N)nc5[nH]cnc45)cc3)ccc2C(=O)N1S(=O)(=O)N(C)C [compound 158],0.46,"Fnuc./Fcyt. [3]: 15 ± 2.9^f; nuclei to cytosol signal ratio (Fnuc/Fcyt) [3]: 15; intracellular kinetics of labeling relative to control probe ([3]; nuclear localized SNAP-tag or HaloTag in U2OS cells): much faster; ε^SDS [1, 4]: 88,000 M^−1cm^−1; ε^protein (SNAP-Halo-tag): 54,000 M^−1cm^−1; λabs (SNAP-Halo-tag): 556 nm; λem (SNAP-Halo-tag): 576 nm; F/F0 (SNAP-Halo-tag; [6]): 21 ± 3.2^e; increase in absorbance at 555 nm (SNAP-Halo-tag; [7]): 15 fold; increase in intensity of fluorescence emission at 580 nm (SNAP-Halo-tag; [7]): 21 fold"
0.45^a/0.45^c,0.45^a/0.45^c,"89,000^a M^−1cm^−1",552 nm,580 nm,32^d,CN(C)c1ccc2c(c1)Oc1cc(N(C)C)ccc1C21c2cc(C(=O)O)ccc2C(=O)N1C#N [compound 132],–,–
0.46,0.43,"89,000^a M^−1cm^−1",553 nm,580 nm,44^d,CN(C)c1ccc2c(c1)Oc1cc(N(C)C)ccc1C21c2cc(C(=O)O)ccc2C(=O)N1S(C)(=O)=O [compound 133],–,–

# The next lines start with the compound.
SMILES,"Φ [1, 4]",Φ ([1]; HEPES buffer (pH 7.3)),ε ([1]; HEPES buffer (pH 7.3)),λabs ([1]; HEPES buffer (pH 7.3)),λem ([1]; HEPES buffer (pH 7.3)),D50 [2],Φ (SNAP-Halo-tag),further results
"CN(C)c1ccc2c(-c3cc(C(=O)[O-])ccc3C(=O)O)c3ccc(=[N+](C)C)cc-3oc2c1 [6-TAMRA, 6-carboxytetramethylrhodamine, reference compound]",0.39,0.43,"84,000^a M^−1cm^−1",550 nm,578 nm,12^d,–,D50 ([2]; listed as TAMRA): around 10
CN1CCc2cc3c(cc21)[Si](C)(C)c1cc2c(cc1C31c3cc(C(=O)O)ccc3C(=O)N1C#N)CCN2C [compound 140],–,–,"8,200^a M^−1cm^−1",698 nm,720 nm,>75^d,–,–
CN(C)c1ccc2c(c1)Oc1cc(N(C)C)ccc1C21c2cc(C(=O)O)ccc2C(=O)N1S(=O)(=O)N(C)C [compound 135],0.43,0.4,"88,000^a M^−1cm^−1",553 nm,580 nm,58^d,–,–
"CN1CCc2cc3c(cc21)[Si](C)(C)c1cc2c(cc1C31OC(=O)c3ccc(C(=O)O)cc31)CCN2C [compound 35, reference compound]",0.16,–,"104,000^a M^−1cm^−1",694 nm,718 nm,54^d,0.17,–
CN(C)c1ccc2c(c1)Oc1cc(N(C)C)ccc1C21c2cc(C(=O)O)ccc2C(=O)N1S(N)(=O)=O [compound 134],0.44^a/0.44^c,0.44^a/0.44^c,"83,000^a M^−1cm^−1",552 nm,580 nm,57^d,–,–
CN1CCc2cc3c(cc21)[Si](C)(C)c1cc2c(cc1C31c3cc(C(=O)NCCOCCOCCCCCCCl)ccc3C(=O)N1C#N)CCN2C [compound 168],0.18,–,340 M⁻¹ cm⁻¹,–,–,–,0.24,"Fnuc./Fcyt. [3]: 47 ± 3.4^f; nuclei to cytosol signal ratio (Fnuc/Fcyt) [3]: 47; time to staining / saturation / completion of labeling ([3]; nuclear localized HaloTag in U2OS cells, 250 nM for MaP510-Halo and MaP700-Halo): ≤ 10 min; ε^SDS [1, 4]: 12,000^c M^−1cm^−1; ε^protein (SNAP-Halo-tag): 52,000 M^−1cm^−1; λabs (SNAP-Halo-tag): 700 nm; λem (SNAP-Halo-tag): 720 nm; F/F0 (SNAP-Halo-tag; ratio of fluorescence intensities at 720 nm in the presence and absence of SNAP-Halo-tag): 650 ± 5.8^e; increase in absorbance (SNAP-Halo-tag; [5]): 150 fold; increase in fluorescence intensity (SNAP-Halo-tag; [5]): 650 fold"
"Cl.N=c1ccc2c(-c3ccccc3C(=O)O)c3ccc(N)cc3oc-2c1 [R110, Rhodamine 110, reference compound]",–,–,–,–,–,15,–,–
